From ChEMBL document CHEMBL1201862, “PubChem BioAssay data set” (2004)
One block for each compound: values may come before it. The source made the active and inactive calls.

Experiments:
[1] = test system: Streptococcus sp. 'group A'; assay: Streptococcus pyogenes SK(-)GAS viability under kanamycin – luminescence, BacTiterGlo, confirmation, counter-screen for streptokinase expression inhibitor project, dose response (AID 1900); format: functional, organism-based
[2] = test system: Streptococcus; assay: GAS UMAA2166 growth inhibition – luminescence, BacTiterGlo, counter-screen for streptokinase expression inhibitor project, dose response (AID 1915); format: functional, organism-based;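 note: potency for reduction of bacterial viability or growth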
[3] = Luminescence Cell-Based Dose Retest to Confirm Inhibitors of Cancer Stem Cells. [Related pubchem assays (depositor defined):AID2717, AID2721]; format: functional, Homo sapiens; settings: Homo sapiens
[4] = biological target: 26S proteasome non-ATPase regulatory subunit 14 (Homo sapiens, UniProt O00487); assay: inhibition of proteasome subunit RPN11 – biochemical, fluorescence polarization, uHTS hits, confirmation (AID 602368); format: functional
[5] = biological target: 72 kDa type IV collagenase (Homo sapiens, UniProt P08253); assay: Dose Response validation of uHTS RPN11 inhibitor hits using a MMP-2 Fluorescence assay.; format: functional
[6] = biological target: Prothrombin (Bos taurus, UniProt P00735); assay: thrombin protease inhibitors – biochemical, fluorescence polarization, uHTS hits, dose response (AID 602369); format: functional
[7] = biological target: DNA dC->dU-editing enzyme APOBEC-3G (Homo sapiens, UniProt Q9HC16); assay: Dose Response confirmation of small molecule APOBEC3G DNA Deaminase Inhibitors via a fluorescence-based single-stranded DNA deaminase assay. [Related pubchem assays (depositor defined):AID493012, AID493028]; format: functional
[8] = biological target: Cytochrome P450 2D6 (Homo sapiens, UniProt P10635);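 note: CYP2D6 member of a cytochrome P450 panel assay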
[9] = biological target: T1, Heat shock factor protein 1 (Mus musculus, UniProt P38532); assay: enhancement of HSF1-driven luciferase signal – cell-based, NIH3T3, luminescence, dose retest, confirmation (AID 435004); format: functional;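 note: stress induced by proteasome inhibitor MG132 added 30 min after compound; luciferase reporter driven by HSF1 response element in NIH3T3 cells; actives raise luminescence as potentiators of the MG132 stress response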
T1 sequence (P38532 whole entry): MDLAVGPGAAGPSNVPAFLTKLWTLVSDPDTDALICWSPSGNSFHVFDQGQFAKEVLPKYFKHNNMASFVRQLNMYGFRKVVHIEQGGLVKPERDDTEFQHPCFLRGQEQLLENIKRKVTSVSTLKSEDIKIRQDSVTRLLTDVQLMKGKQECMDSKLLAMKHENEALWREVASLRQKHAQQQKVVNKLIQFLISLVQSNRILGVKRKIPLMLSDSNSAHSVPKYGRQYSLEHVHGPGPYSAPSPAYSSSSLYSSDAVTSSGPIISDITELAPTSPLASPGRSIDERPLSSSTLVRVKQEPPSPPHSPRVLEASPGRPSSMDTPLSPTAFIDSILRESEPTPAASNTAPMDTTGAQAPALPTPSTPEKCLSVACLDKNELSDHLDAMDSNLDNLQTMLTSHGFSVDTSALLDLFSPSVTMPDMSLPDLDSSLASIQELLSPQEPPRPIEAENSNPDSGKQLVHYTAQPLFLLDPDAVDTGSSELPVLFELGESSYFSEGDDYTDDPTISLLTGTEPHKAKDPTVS

[10] = biological target: T2, Sentrin-specific protease 8 (Homo sapiens, UniProt Q96LD8); format: functional
T2 sequence (Q96LD8 whole entry): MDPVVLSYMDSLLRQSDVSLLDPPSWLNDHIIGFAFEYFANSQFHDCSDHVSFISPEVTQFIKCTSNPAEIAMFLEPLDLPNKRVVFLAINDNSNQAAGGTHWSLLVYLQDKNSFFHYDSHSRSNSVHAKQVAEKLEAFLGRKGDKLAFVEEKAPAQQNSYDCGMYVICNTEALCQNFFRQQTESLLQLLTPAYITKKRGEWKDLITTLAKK

[11] = biological target: T2, Sentrin-specific protease 8; format: functional; remark: listed apart in the source
[12] = biological target: T3, Mannose-6-phosphate isomerase (Homo sapiens, UniProt P34949); assay: MPI inhibition at elevated mannose 6-phosphate – biochemical, fluorescence intensity, high mannose 6-phosphate, primary screen (AID 1220)
T3 sequence (P34949 whole entry): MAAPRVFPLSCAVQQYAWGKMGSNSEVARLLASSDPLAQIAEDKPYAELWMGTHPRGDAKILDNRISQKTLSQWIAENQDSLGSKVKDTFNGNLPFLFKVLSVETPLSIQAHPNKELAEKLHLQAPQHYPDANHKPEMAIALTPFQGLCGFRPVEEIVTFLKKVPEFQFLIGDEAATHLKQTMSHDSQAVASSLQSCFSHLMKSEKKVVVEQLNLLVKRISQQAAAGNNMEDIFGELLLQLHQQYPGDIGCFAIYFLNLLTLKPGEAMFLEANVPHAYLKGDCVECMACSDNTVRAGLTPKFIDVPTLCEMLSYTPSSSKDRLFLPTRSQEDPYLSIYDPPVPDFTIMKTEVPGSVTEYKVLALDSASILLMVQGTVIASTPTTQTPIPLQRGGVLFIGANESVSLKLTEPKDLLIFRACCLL

[13] = HEK-293T cell viability reduction – luminescence, B-cell screen hits, cytotoxicity control for BCR NF-kB inhibitor project, dose response (AID 489021); format: functional, cell-based;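 note: HEK-293T cells carrying an NF-kB luciferase reporter; cells exposed to compound for about 14 hours before viability readout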
[14] = biological target: Cytochrome P450 2C19 (Homo sapiens, UniProt P33261); assay: Cytochrome panel assay with activity outcomes. Panel member name: p450-cyp2c19 Compounds with AC50 equal or less than 10 uM are considered active; format: functional
Sequence of Cytochrome P450 2C19 (P33261 whole entry): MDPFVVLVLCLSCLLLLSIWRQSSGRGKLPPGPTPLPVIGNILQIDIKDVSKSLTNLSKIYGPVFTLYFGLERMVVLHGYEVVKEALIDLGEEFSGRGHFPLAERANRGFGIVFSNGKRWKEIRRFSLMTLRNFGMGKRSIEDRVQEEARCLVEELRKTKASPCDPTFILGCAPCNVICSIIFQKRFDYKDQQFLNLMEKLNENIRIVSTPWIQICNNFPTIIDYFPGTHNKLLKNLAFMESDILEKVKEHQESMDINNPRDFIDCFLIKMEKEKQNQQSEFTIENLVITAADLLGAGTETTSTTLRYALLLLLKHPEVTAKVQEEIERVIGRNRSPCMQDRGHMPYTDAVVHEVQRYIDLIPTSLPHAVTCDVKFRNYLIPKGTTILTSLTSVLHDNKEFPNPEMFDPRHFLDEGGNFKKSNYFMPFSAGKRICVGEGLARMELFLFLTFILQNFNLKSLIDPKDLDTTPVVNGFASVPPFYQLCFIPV

Sequence of DNA dC->dU-editing enzyme APOBEC-3G (Q9HC16 whole entry): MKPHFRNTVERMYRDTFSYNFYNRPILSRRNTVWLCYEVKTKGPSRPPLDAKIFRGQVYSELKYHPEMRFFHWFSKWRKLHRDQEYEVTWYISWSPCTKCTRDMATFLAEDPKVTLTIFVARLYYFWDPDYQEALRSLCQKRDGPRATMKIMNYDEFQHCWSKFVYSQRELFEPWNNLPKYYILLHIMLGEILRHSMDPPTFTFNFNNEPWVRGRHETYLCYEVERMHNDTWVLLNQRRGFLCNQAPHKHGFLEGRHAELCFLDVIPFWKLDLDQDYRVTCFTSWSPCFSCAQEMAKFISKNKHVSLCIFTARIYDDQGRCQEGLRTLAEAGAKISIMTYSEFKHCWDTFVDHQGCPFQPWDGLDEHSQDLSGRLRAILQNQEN
Sequence of Cytochrome P450 2D6 (P10635 whole entry): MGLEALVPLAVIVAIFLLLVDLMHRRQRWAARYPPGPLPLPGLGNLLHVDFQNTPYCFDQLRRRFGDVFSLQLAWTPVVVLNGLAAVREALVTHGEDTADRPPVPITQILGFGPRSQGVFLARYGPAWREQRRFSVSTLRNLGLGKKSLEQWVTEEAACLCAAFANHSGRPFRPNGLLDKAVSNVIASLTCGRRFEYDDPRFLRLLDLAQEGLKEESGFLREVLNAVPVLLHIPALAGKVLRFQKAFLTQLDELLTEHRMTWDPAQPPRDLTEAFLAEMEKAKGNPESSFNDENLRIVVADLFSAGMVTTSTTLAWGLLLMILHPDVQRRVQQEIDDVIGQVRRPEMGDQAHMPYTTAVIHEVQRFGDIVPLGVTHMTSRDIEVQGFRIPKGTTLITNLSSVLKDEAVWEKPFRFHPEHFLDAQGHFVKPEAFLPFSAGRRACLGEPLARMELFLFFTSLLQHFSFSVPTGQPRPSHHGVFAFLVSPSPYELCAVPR
Sequence of 72 kDa type IV collagenase (P08253 whole entry): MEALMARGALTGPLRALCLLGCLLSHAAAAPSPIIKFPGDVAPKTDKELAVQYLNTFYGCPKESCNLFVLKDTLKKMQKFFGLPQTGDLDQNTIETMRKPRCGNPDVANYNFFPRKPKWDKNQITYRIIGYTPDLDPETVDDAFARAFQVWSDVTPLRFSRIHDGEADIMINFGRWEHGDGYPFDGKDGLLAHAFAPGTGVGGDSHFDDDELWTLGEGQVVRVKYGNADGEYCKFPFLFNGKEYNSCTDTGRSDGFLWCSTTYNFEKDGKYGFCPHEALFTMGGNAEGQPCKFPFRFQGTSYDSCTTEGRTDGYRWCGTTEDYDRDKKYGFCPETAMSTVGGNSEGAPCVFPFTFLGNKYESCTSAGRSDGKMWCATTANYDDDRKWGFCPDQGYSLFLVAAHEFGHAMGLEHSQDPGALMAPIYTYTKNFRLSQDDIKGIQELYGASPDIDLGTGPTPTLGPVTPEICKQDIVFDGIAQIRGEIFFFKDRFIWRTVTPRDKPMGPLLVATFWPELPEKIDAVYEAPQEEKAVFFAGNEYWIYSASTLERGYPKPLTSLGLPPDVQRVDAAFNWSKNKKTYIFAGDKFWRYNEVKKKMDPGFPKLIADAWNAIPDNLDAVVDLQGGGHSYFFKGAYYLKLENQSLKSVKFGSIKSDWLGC
Sequence of 26S proteasome non-ATPase regulatory subunit 14 (O00487 whole entry): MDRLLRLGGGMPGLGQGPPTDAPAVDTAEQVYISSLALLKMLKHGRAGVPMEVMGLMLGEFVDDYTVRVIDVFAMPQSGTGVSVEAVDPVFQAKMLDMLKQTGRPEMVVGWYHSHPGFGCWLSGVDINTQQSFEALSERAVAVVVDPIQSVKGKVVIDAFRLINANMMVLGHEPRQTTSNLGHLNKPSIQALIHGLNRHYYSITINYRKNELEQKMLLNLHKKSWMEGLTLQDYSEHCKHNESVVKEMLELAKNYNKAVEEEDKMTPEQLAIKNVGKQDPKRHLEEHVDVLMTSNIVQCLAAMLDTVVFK

SMILES: O=C(CSc1nc(O)c2c(C(F)(F)F)cc(-c3cccs3)nc2n1)Nc1ccc(F)c(F)c1
EC50 [1]: 1.12 µM (active) | EC50 [2]: 2.58 µM (active) | AC50 [3]: 1.27 µM (active) | IC50 [4]: 42.7 µM (active) | IC50 [5]: > 100 µM (inactive) | IC50 [6]: 79.4 µM (active)

SMILES: CCOC(=O)c1sc(N)c(C(=O)Nc2ccccc2OC)c1C
IC50 [7]: 68.9 µM (active)

AC50 [8]: inconclusive
SMILES: Cc1cccc(OCCn2c(S(=O)(=O)O)nc3ccccc32)c1

EC50 [9]: > 260 µM (inactive)
SMILES: CC(=O)C1=C(C)NC2(O)c3ccccc3C(=O)C12O (stereo not drawn)
IC50 [10]: 11.1 µM (active) | IC50 [11]: 22.4 µM (active)

SMILES: O=C(NC1=NC(=O)C(F)(C(F)(F)F)S1)NC1CCCCC1 (stereo not drawn)
IC50 [12]: > 50 µM (not active) | IC50 [7]: 32.7 µM (active)

SMILES: Cc1cc(N2C(=O)Cc3ccccc3C2=O)ccc1C(C)C
IC50 [10]: > 100 µM (inactive) | IC50 [11]: 4.5 µM (active)

SMILES: CCOC(=O)C(/C=N/c1cc(C)ccc1C)=C(\O)OCC
IC50 [13]: > 80 µM (inactive)

AC50 [14]: inconclusive | AC50 [8]: inconclusive
SMILES: NC1(C(=O)O)CCCCC1
